Columns and labels:
[1] = test system: Her-2 overexpressing human breast tumors (BT474); experiment: Her-2 overexpressing human breast tumors (BT474) in nude mice, combination with Herceptin; assay type: in vivo, mouse; conditions: compared to the PBS control group; Herceptin 10 mg/kg i.p, IMO 1 mg/kg peritumoral, twice a week for 6 weeks; FIG. 29
[2] = test system: B16.F0 melanoma; experiment: Subcutaneous B16.F0 melanoma in C57BL/6 mice; assay type: in vivo, mouse; conditions: 1 mg/kg peritumoral every other day for 10 times from day 8; FIG. 22A
Experimental: (§1) For subcutaneous solid tumor models, 10^6 CT26.CL25 cells/mouse or 5×10^5 B16.F0 cells/mouse in 100 μl of PBS were implanted into BALB/c or C57BL/6 mice in the lower right flank. The tumor size reached to 50 to 200 mg on day 6 for CT26.CL25 and on day 8 for B16.F0 post tumor inoculation. The tumor bearing mice were then treated with peritumoral injection of IMO compounds or non-CpG DNA control at a dose of 1 mg/kg every other day for 10 times. Tumor growth was recorded with the use of calipers, by measuring the long and short diameters of the tumor. Tumor volumes were measured with a caliper and the formula (0.5×length×width^2) was applied to determine tumor growth kinetics.
IMO 2 was further tested for its antitumor activity in mice bearing B 16.F0 murine melanoma. C57BL/6 mice bearing B16.F0 melanoma were treated with 1 mg/kg IMO 2 by peritumoral administration every other day for 10 times starting on day 8 following tumor inoculation.

[3] = test system: B16.F0 melanoma; experiment: B16.F0 melanoma in wt, IL-6 ko and IL-12 ko C57BL/6 mice; assay type: in vivo, mouse; conditions: FIG. 23
From the text: Female BALB/c (H-2^d), C57BL/6, and IL-6 and IL-12 knockout (ko) (both ko on a C57BL/6 background) mice 5-8 weeks of age, were purchased from Jackson Laboratory (Bar Harbor, Me.). CT26.WT (ATCC, Rockville, Md.) is a carcinogen-induced BALB/c undifferentiated colon carcinoma. CT26.CL25 (ATCC, Rockville, Md.) is a subclone of CT26.WT that has been transduced with Escherichia coli β-gal gene. 4T1 is a mammary adenocarcinoma cell line in BALB/c mice. B16.F0 is a C57BL/6 derived melanoma (ATCC). CT26.WT and 4T1 cells were cultured in RPMI 1640, 10% heat-inactivated fetal bovine serum (FBS, Atlas Biologicals, Fort Colins, Colo.), 2 mM L-glutamine, 100 μg/ml streptomycin, 100 U/ml penicillin (Mediatech, Va.). CT26.CL25 is maintained in the same medium plus 400 μg/ml G418 sulfate (Life Technologies, Grand Island, N.Y.). B 16.F0 cells were grown in DMEM containing 10% FBS and antibiotics.
For peritoneal disseminated tumor model, 3×10^5 CT26.WT or CT26.CL25 cells and 5×10^4 B16.F0 cells were injected i.p to BALB/c or C57BL/6 mice respectively. IMO compounds or non-CpG DNA (2.5 mg/kg) were administrated i.p. twice per week starting on day 1 for a total of 5 times. Mice were checked daily for tumor growth and for survival. Each dose group had 6 to 10 mice.

[4] = test system: CT26.CL25 colon tumor; experiment: Subcutaneous CT26.CL25 colon tumor in BALB/c mice; assay type: in vivo, mouse; conditions: day 24, compared with non-CpG DNA treated mice; 1 mg/kg peritumoral
Experimental: as §1
The antitumor activity of IMO compounds in a murine colon carcinoma CT26.CL25 model was evaluated. BALB/c mice bearing CT26.CL25 subcutaneous solid tumors were treated with 1 mg/kg IMO compounds by peritumoral administration every other day for 10 times starting on day 6 following tumor inoculation.

[5] = test system: CT26.WT and CT26.CL25 tumors; experiment: Rechallenge of long term survivors with CT26.WT or CT26.CL25; assay type: in vivo, mouse
From the text: (§2) Long term survivors (n=5) of IMO compound treated mice with CT26.WT or CT26.CL25 peritoneal tumor were rechallenged i.p. or i.v. with 5×10^5 of the parental tumor cells without any further treatment. To evaluate the specificity of the IMO induced antitumor response in tumor bearing mice, these long term survivors (n=5) were also rechallenged with syngeneic, non-organ-related mammary tumor 4T1 (5×10^5). For i.v. rechallenged groups, mice were sacrificed on day 13, lungs were harvested and lung metastases were counted.

[6] = test system: 4T1 mammary carcinoma; experiment: Rechallenge of long term survivors with 4T1; assay type: in vivo, mouse; conditions: FIG. 20C
From the text: as §2

[7] = Total serum IgG1 and IgG2a in B16.F0 tumor bearing C57BL/6 mice; assay type: in vivo, mouse; conditions: compared with control non-CpG DNA
Experimental: For the analysis of serum antibodies, 96 well plates were incubated at room temperature for 3 hours with β-gal protein (Calbiochem Novabiochem, Pasadena, Calif.) at 2 μg/ml in phosphate buffered saline (PBS). The solid phase was incubated overnight at 4° C. with normal mouse serum (NMS) or antiserum, or β-gal specific monoclonal Ab (Calbiochem Novabiochem, Pasadena, Calif.) followed by an incubation with horseradish peroxidase (HRP)-conjugated antibodies specific for mouse IgG (H+L). For isotype analysis, HRP-labelled goat anti-mouse IgG1 and IgG2a (Southern Biotechnology, Birmingham, Ala.) were used. The binding of antibodies was measured as absorbance at 405 nm after reaction of the immune complexes with ABTS substrate (Zymed, San Francisco, Calif.).

[8] = test system: CT26.CL25; experiment: Peritoneal disseminated CT26.CL25 tumor, survival; assay type: in vivo, mouse; conditions: peritoneal administration, 1 mg/kg; FIG. 17C
Experimental: (§3) For peritoneal disseminated tumor model, 3×10^5 CT26.WT or CT26.CL25 cells and 5×10^4 B16.F0 cells were injected i.p to BALB/c or C57BL/6 mice respectively. […] Mice were checked daily for tumor growth and for survival. Each dose group had 6 to 10 mice.

[9] = test system: BALB/c mice; experiment: In vivo serum cytokine induction; parameters: species or system mouse
Experimental: To assess serum cytokine levels, BALB/c mice (n=5) were injected intraperitoneally (i.p), subcutaneously (s.c) or intramuscularly (i.m) with IMO compounds at 10 mg/kg (single dose). Sera was collected by retro-orbital bleeding at 4 hrs of IMO administration and determined IL-112 and IL-6 by sandwich ELISA. Cytokine antibodies and standards were purchased from PharMingen (San Diego, Calif.).
To evaluate the immunopharmacological effects in vivo, IMO compounds, CpG immunomers, and non-CpG oligos were administered to BALB/c mice i.p, s.c or i.m at a dose of 10 mg/kg and their serum was evaluated for IL-12 and IL-6 after 4 hrs.

[10] = test system: CT26.CL25 tumor cells; experiment: Adoptive transfer of splenocytes, CT26.CL25 challenge; assay type: in vivo, mouse; conditions: FIG. 21A
From the text: (§4) To study adoptive immune cell transfer, BALB/c mice were adoptively i.p. transferred with 5×10^6 of syngeneic splenocytes either from naïve BALB/c mice or from IMO treated long term survivors bearing CT26.WT or CT26.CL25, the mice (5/group) were then cross challenged i.p. with 3×10^5 CT26.WT, CT26.CL25 or 4T1 cells on day 3.

[11] = test system: CT26.WT; experiment: Peritoneal disseminated CT26.WT tumor, survival; assay type: in vivo, mouse; conditions: peritoneal administration, 1 mg/kg; FIG. 17B
Experimental: as §3

[12] = test system: 4T1 tumor cells; experiment: Adoptive transfer of splenocytes, 4T1 challenge; assay type: in vivo, mouse; conditions: FIG. 21B
From the text: as §4

[13] = test system: CD69+ and CD86+ cells; experiment: Activation of CD69+ and CD86+ cells in peripheral blood; assay type: in vivo, mouse; conditions: docetaxel 30 mg/kg days 1 and 3, IMO 2 5 mg/kg days 1, 3, 5, 7; FIG. 24C
[14] = In vitro cytokine induction profiles of IMO compounds (FIG. 16); assay type: cell-based
[15] = test system: 4T1 breast tumor; experiment: 4T1 breast tumor in BALB/c mice, combination with doxorubicin; assay type: in vivo, mouse; conditions: IMO 2 1 mg/kg peritumoral, doxorubicin 30 mg/kg i.p; FIG. 24A
Experimental: For the 4T1 tumor models, 5×10^5 cells/mouse in. 100 μl PBS were implanted into BALB/c mice in the lower right flank. On day 5 when the average tumor size reached 50 mm^2, the mice were given i.p injections of 30 mg/kg doxorubicin (Bedford lab, Bedford, Ohio) for three times on days 5, 6 and 7. IMO 2 (1 mg/kg) dissolved in 100 μl PBS was administrated by peritumoral injection at twice a week interval for a total of six times.

[16] = test system: Her-2 overexpressing human breast tumors (BT474); experiment: Example 23 tumor model, Rituxan and/or IMO 2; assay type: in vivo, mouse; conditions: Rituxan days 5, 7, 9, 11; IMO 2 days 5, 7, 9, 11, 13; FIG. 30
Experimental: Nude mice bearing subcutaneously implanted Her-2 overexpressing human breast tumors (BT474). Tumor bearing mice were treated by intraperitoneal injections of Rituxan on days 5, 7, 9 and 11 and/or IMO 2 on days 5, 7, 9, 11 and 13.

[17] = Intramuscular (i.m), 10 mg/kg, 4 hrs
[18] = Intraperitoneal (i.p), 10 mg/kg, 4 hrs
[19] = Subcutaneous (s.c), 10 mg/kg, 4 hrs

IMO 2: IMO compound of FIG. 15 (SEQ ID NO 24) containing a synthetic CpR motif, mouse-specific immunostimulatory motif (DNA TCTGACNTTCT; synthetic CpR motif, chemistry not fully specified)
Tumor growth inhibition [1]: 65%
Tumor growth inhibition [2]: 71%
Tumor growth ([3]; IL-6 ko C57BL/6 mice): significant reduction in tumor growth
Tumor growth ([3]; wt C57BL/6 mice): significant reduction in tumor growth
Average tumor growth inhibition [4]: 85%
Rejection of pulmonary metastases after i.v. inoculation ([5]; data not shown): able to reject pulmonary metastases of the same tumor
Protection against i.p rechallenge ([5]; mice cleared of CT26.CL25 peritoneal tumor, FIGS. 20A and B): rejected i.p rechallenge with CT26.WT and CT26.CL25 tumors
Protection against 4T1 mammary carcinoma challenge [6]: not protected
Total IgG1 levels ([7]; FIG. 22B): decrease or no change
Total circulating serum IgG2a ([7]; FIG. 22C): significant increase
Mice survival [8]: marked increase of mice survival
Serum IL-6 induction ([9]; 10 mg/kg, all three routes of administration, 4 hrs): significantly lower serum IL-6
Serum IL-12 secretion in mice ([9]; 4 hr after administration, FIG. 25B): induced IL-12 secretion
IL-6 (serum) [9, 17]: 1.2 ± 0.1 ng/mL
IL-12 (serum) [9, 17]: 87.9 ± 3.2 ng/mL
IL-6 (serum) [9, 18]: 2.5 ± 0.2 ng/mL
IL-12 (serum) [9, 18]: 51.7 ± 0.9 ng/mL
IL-6 (serum) [9, 19]: 2.3 ± 0.4 ng/mL
IL-12 (serum) [9, 19]: 136.9 ± 17 ng/mL
Protection by transferred splenocytes against CT26.CL25 challenge [10]: protective against a lethal tumor challenge
Mice survival [11]: marked increase of mice survival
Protection by transferred splenocytes against 4T1 challenge [12]: did not extend to 4T1 tumor cell challenge
Percentage of CD69+ and CD86+ cells [13]: significant increase in the percentage of CD69+ and CD86+cells
IL-6 production in vitro [14]: lower IL-6 production
IL-12 secretion in vitro [14]: strong IL-12 secretion
Inhibition of 4T1 tumor growth [15]: strong inhibition
Tumor growth [16]: significantly inhibited
